This test deals with TNFα (Homo sapiens, UniProt P01375). The test can be described thus: TNF induced HEK-Blue assay (NF-kB-driven secreted alkaline phosphatase reporter). It is filed as cell-based. The settings on record: TNFα 0.5 ng/mL, HEK-Blue-CD40L cells, 18 h. Put shortly:
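HEK-Blue-CD40L cells (NF-kB-driven SEAP reporter), 20,000/well, added after 30 min pre-incubation of compound (0.004–25 μM final) with TNFα 0.5 ng/mL final at 37 °C; 18 h incubation. SEAP read with QUANTI-Blue at 620 nm; IC50 from 4-parameter logistic fit, normalized to unstimulated and stimulated DMSO controls.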

[1] abbreviates: read-out: TNF induced HEK-Blue assay IC50 value.

Molecules are shown by their SMILES. Like-named read-outs stand apart in the source and are kept apart here.

The term IC50 denotes the concentration that gives 50% inhibition.

Sequence of TNFα (P01375 77-233 limits assumed): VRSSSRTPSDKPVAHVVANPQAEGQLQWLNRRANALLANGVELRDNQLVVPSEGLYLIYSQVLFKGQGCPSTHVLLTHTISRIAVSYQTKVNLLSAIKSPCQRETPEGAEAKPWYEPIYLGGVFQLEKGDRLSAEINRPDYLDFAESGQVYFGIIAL

Turning to `COc1ccc(-c2ccc(F)c([C@@H](C)Nc3c(Cl)cnc4ccccc34)c2)cn1` [Example 460, (R)-3-chloro-N-(1-(2-fluoro-5-(6-methoxypyridin-3-yl)phenyl)ethyl)quinolin-4-amine], the IC50 under setting [1] is less than 1000 nM.

With `Cc1ccc(C)c(Nc2c(Cl)c(C(=O)Nc3cccnc3)nc3ccc(-c4ccc(C#N)nc4)cc23)c1` [Example 32, 3-chloro-6-(6-cyanopyridin-3-yl)-4-((2,5-dimethylphenyl)amino)-N-(pyridin-3-yl)quinoline-2-carboxamide], the IC50 under setting [1] was less than 1000 nM. The same measure, in the same setting: the result for `C[C@H](Nc1c(Cl)cnc2ccc(-c3cnc(C(C)(C)O)nc3)cc12)[C@H]1CCCN(C(=O)c2cccnc2)C1` [Example 566, ((S)-3-((S)-1-((3-chloro-6-(2-(2-hydroxypropan-2-yl)pyrimidin-5-yl)quinolin-4-yl)amino)ethyl)piperidin-1-yl)(pyridin-3-yl)methanone] reads 1000 to 10000 nM; that for `CC(Nc1c(Cl)cnc2ccc(-c3ccc(C(C)(C)O)cc3)cc12)c1ccon1` (racemic) [Example 174, 2-(4-(3-chloro-4-((1-(isoxazol-3-yl)ethyl)amino)quinolin-6-yl)phenyl)propan-2-ol], 10000 to 25000 nM. `CC(Nc1c(Cl)cnc2cc(F)c(-c3cnc(C(C)(C)O)nc3)cc12)c1ccccc1F` (stereo not shown) [Example 252, 2-(5-(3-chloro-7-fluoro-4-((1-(2-fluorophenyl)ethyl)amino)quinolin-6-yl)pyrimidin-2-yl)propan-2-ol]: the IC50 (TNF induced HEK-Blue assay IC50 value) is less than 1000 nM. `Cc1ccc(C)c(Nc2c(Cl)c(CO)nc3ccc(-c4ccc(C#N)nc4)cc23)c1` [Example 40, 5-(3-chloro-4-((2,5-dimethylphenyl)amino)-2-(hydroxymethyl)quinolin-6-yl)picolinonitrile]: under setting [1], the IC50 lay within 1000 to 10000 nM.

Take `CC(Nc1c(Cl)cnc2ccc(-c3cnc(C(C)(C)O)nc3)c(F)c12)c1ccccc1F` (racemic) [Example 253, 2-(5-(3-chloro-5-fluoro-4-((1-(2-fluorophenyl)ethyl)amino)quinolin-6-yl)pyrimidin-2-yl)propan-2-ol]: the IC50 under setting [1] was less than 1000 nM.

Consider `C=Cc1ccc(F)c([C@H](Nc2c(Cl)c(C)nc3ccc(-c4cnc(C(C)(C)O)nc4)cc23)C(F)F)c1` [Example 352, (S)-2-(5-(3-chloro-4-((2,2-difluoro-1-(2-fluoro-5-vinylphenyl)ethyl)amino)-2-methylquinolin-6-yl)pyrimidin-2-yl)propan-2-ol], for which the IC50 under setting [1] is less than 1000 nM.

Regarding `CC(Nc1c(Cl)cnc2ccc(-c3ccc(C(C)(C)O)cc3)cc12)c1cnccn1` (racemic) [Example 198, 2-(4-(3-chloro-4-((1-(pyrazin-2-yl)ethyl)amino)quinolin-6-yl)phenyl)propan-2-ol], under setting [1], the IC50 was less than 1000 nM. The same measure, in the same setting: in the case of `Cc1nc2c(F)cc(-c3cnc(C(C)(C)O)nc3)cc2c(N[C@H](C)c2cc(C(N)=O)ccc2F)c1Cl` [Example 303, (R)-3-(1-((3-chloro-8-fluoro-6-(2-(2-hydroxypropan-2-yl)pyrimidin-5-yl)-2-methylquinolin-4-yl)amino)ethyl)-4-fluorobenzamide] it was less than 1000 nM; in that of `Cc1nc2ccc(-c3cnc(C(C)(C)O)nc3)cc2c(N[C@H](C)c2cc(NC(=O)OC(C)(C)C)ccc2F)c1Cl` [Example 359, tert-Butyl (R)-(3-(1-((3-chloro-6-(2-(2-hydroxypropan-2-yl)pyrimidin-5-yl)-2-methylquinolin-4-yl)amino)ethyl)-4-fluorophenyl)carbamate], less than 1000 nM. Regarding `COC(=O)[C@H](CN)N1CCN(c2ncc(-c3ccc4ncc(Cl)c(N[C@H](C)c5ccccc5F)c4c3)cn2)CC1` [Example 99, methyl (S)-3-amino-2-(4-(5-(3-chloro-4-(((R)-1-(2-fluorophenyl)ethyl)amino)quinolin-6-yl)pyrimidin-2-yl)piperazin-1-yl) propanoate], under setting [1], the IC50 fell in the range of 1000 to 10000 nM. As to `C=Cc1ccc(F)c([C@@H](C)Nc2c(Cl)c(C)nc3cc(F)c(-c4cnc(C(C)(C)O)nc4)nc23)c1` [Example 572, (R)-2-(5-(7-chloro-3-fluoro-8-((1-(2-fluoro-5-vinylphenyl)ethyl)amino)-6-methyl-1,5-naphthyridin-2-yl)pyrimidin-2-yl)propan-2-ol], the IC50 under setting [1] lay within 1000 to 10000 nM. On to `Cc1nc2cc(F)c(-c3cnc(C(C)(C)O)nc3)nc2c(N[C@H](C)c2cccc(C#N)c2)c1Cl` [Example 589, (R)-3-(1-((3-chloro-7-fluoro-6-(2-(2-hydroxypropan-2-yl)pyrimidin-5-yl)-2-methyl-1,5-naphthyridin-4-yl)amino)ethyl)benzonitrile], for which the IC50 under setting [1] is less than 1000 nM. On the same count and under the same terms, in the case of `CC(Nc1c(Cl)cnc2cc(F)c(-c3ccc(C4(CO)CC4)cc3)cc12)c1ccccc1F` (stereo not shown) [Example 265, (1-(4-(3-chloro-7-fluoro-4-((1-(2-fluorophenyl)ethyl)amino)quinolin-6-yl)phenyl)cyclopropyl) methanol] it was less than 1000 nM; in that of `CCNC(=O)c1ccc(F)c(C(C)Nc2c(Cl)cnc3ccc(-c4cnc(N5CCNC(=O)C5)nc4)cc23)n1` (racemic) [Example 39, 6-(1-((3-chloro-6-(2-(3-oxopiperazin-1-yl)pyrimidin-5-yl)quinolin-4-yl)amino)ethyl)-N-ethyl-5-fluoropicolinamide], less than 1000 nM. On the same count and under the same terms, in the case of `CC(C)(O)c1ccc(-c2ccc3ncc(Cl)c(NC(CCF)c4ccccc4F)c3c2)cc1` (racemic) [Example 232, 2-(4-(3-chloro-4-((3-fluoro-1-(2-fluorophenyl)propyl)amino)quinolin-6-yl)phenyl)propan-2-ol] it was less than 1000 nM.

Turning to `C[C@@H](Nc1c(Cl)cnc2ccccc12)c1cc(-c2ccc(N)nc2)ccc1F` [Example 478, (R)—N-(1-(5-(6-aminopyridin-3-yl)-2-fluorophenyl)ethyl)-3-chloroquinolin-4-amine], the IC50 under setting [1] is less than 1000 nM. On the same count and under the same terms, the result for `CC[C@@H](Nc1c(Cl)cnc2ccccc12)c1cc(-c2cncnc2)ccc1F` [Example 558, (R)-3-chloro-N-(1-(2-fluoro-5-(pyrimidin-5-yl)phenyl)propyl)quinolin-4-amine] reads less than 1000 nM; that for `C[C@@H](Nc1c(Cl)cnc2cccnc12)c1cc(-c2cncnc2)ccc1F` [Example 555, (R)-3-chloro-N-(1-(2-fluoro-5-(pyrimidin-5-yl)phenyl)ethyl)-1,5-naphthyridin-4-amine], less than 1000 nM. With `CC(=O)NC(CO)c1ccc(-c2ccc3ncc(Cl)c(N[C@H](C)c4ccccc4F)c3c2)cc1` (stereo partly drawn) [Example 482, N-(1-(4-(3-chloro-4-(((R)-1-(2-fluorophenyl)ethyl)amino)quinolin-6-yl)phenyl)-2-hydroxyethyl)acetamide], the IC50 under setting [1] was in the range of 10000 to 25000 nM. On the same count and under the same terms, in the case of `Cc1nc2ccc(-c3cnc(C(C)(C)O)nc3)cc2c(N[C@@H](c2cc(C(C)(C)O)ccc2F)C(F)F)c1Cl` [Example 418, (S)-2-(5-(3-chloro-4-((2,2-difluoro-1-(2-fluoro-5-(2-hydroxypropan-2-yl)phenyl)ethyl)amino)-2-methylquinolin-6-yl)pyrimidin-2-yl)propan-2-ol] it was less than 1000 nM; in that of `Cc1nc2ccc(-c3cnc(C(C)(C)O)nc3)cc2c(N[C@H](C)c2cc(C(O)CO)ccc2F)c1Cl` (mixture of isomers) [Example 397, 1-(3-((R)-1-((3-chloro-6-(2-(2-hydroxypropan-2-yl)pyrimidin-5-yl)-2-methylquinolin-4-yl)amino)ethyl)-4-fluorophenyl)ethane-1,2-diol], less than 1000 nM; in that of `CC(Nc1c(Cl)cnc2cc(F)c(-c3ccc(C(O)CO)cc3)cc12)c1cc(C#N)ccc1F` (mixture of isomers) [Example 599, 3-(1-((3-chloro-6-(4-(1,2-dihydroxyethyl)phenyl)-7-fluoroquinolin-4-yl)amino)ethyl)-4-fluorobenzonitrile], less than 1000 nM.

As for `CC(Nc1c(Cl)cnc2cc(F)c(-c3ccc(C(O)C4CC4)cc3)cc12)c1ccccc1F` (stereo not shown) [Example 260, (4-(3-chloro-7-fluoro-4-((1-(2-fluorophenyl)ethyl)amino)quinolin-6-yl)phenyl)(cyclopropyl)methanol], under setting [1], the IC50 was less than 1000 nM. Still for that read-out and setting: in the case of `C[C@@H](Nc1c(Cl)cnc2ccc(-c3cnc(C(C)(C)O)nc3)cc12)c1cc(C2NC(=O)NC2=O)ccc1F` (single isomer, unassigned) [Example 423] it was less than 1000 nM; in that of `Cc1nc2cc(F)c(-c3cnc(C(C)(C)O)nc3)cc2c(N[C@H](C)c2cccc(C(N)=O)c2)c1Cl` [Example 394, (R)-3-(1-((3-chloro-7-fluoro-6-(2-(2-hydroxypropan-2-yl)pyrimidin-5-yl)-2-methylquinolin-4-yl)amino)ethyl)benzamide], less than 1000 nM; in that of `O=C1CN(c2ncc(-c3ccc4ncc(Cl)c(N[C@@H](c5ccccc5F)C(F)F)c4c3)cn2)CCN1` [Example 79, (S)-4-(5-(3-chloro-4-((2,2-difluoro-1-(2-fluorophenyl)ethyl)amino)quinolin-6-yl)pyrimidin-2-yl)piperazin-2-one], less than 1000 nM. For the molecule `C[C@@H](Nc1c(Cl)cnc2ccc(-c3cnc(N4CCN(C5CCNC5=O)CC4)nc3)cc12)c1ccccc1F` (mixture of isomers) [Example 112, 3-(4-(5-(3-chloro-4-(((R)-1-(2-fluorophenyl)ethyl)amino)quinolin-6-yl)pyrimidin-2-yl)piperazin-1-yl)pyrrolidin-2-one], the IC50 under setting [1] was less than 1000 nM. The same measure, in the same setting: in the case of `COCC(C)(O)c1ncc(-c2cc3c(NC(C)c4ccccc4F)c(Cl)cnc3cc2F)cn1` (stereo not shown) [Example 292, 2-(5-(3-chloro-7-fluoro-4-((1-(2-fluorophenyl)ethyl)amino)quinolin-6-yl)pyrimidin-2-yl)-1-methoxypropan-2-ol] it was less than 1000 nM; in that of `CC(Nc1c(Cl)cnc2cc(F)c(-c3cnc(C(O)CO)nc3)cc12)c1ccccc1F` (single isomer, unassigned) [Example 596, 1-(5-(3-chloro-7-fluoro-4-((1-(2-fluorophenyl)ethyl)amino)quinolin-6-yl)pyrimidin-2-yl)ethane-1,2-diol], less than 1000 nM.

These data come from US10865191B2, “Heterocyclic compounds useful as modulators of TNF alpha” (BRISTOL-MYERS SQUIBB COMPANY, priority 2015, dated 2020).
